Source: patent US20220241202A1, “METHOD AND VEHICLE FOR DELIVERING AGENTS ACROSS THE BLOOD-BRAIN BARRIER” (priority 2019, published 2022)
Numbering of substitutions follows the chain as printed. In names and notes the source's numbering stands.

What was measured:
CAD cells [1] = assay: Screen of J proteins for EV-mediated export of misfolded huntingtin (western blot and nanoscale flow cytometry); assay type: cell-based; settings: cells expressing GFP-tagged 72Q huntingtin^exon1 and the J protein
Procedure: (§1) Cell lines were transfected with the molecular chaperone CSPα and a GFP-tagged protein. CAD cells (catecholaminergic derived CNS cells) were the cell line utilized. Other cell lines, including patient-derived cell lines, may also be utilized. cDNAs encoding for myc-tagged CSPα or vector alone and GFP-72Q huntingtin^exon1 were transiently transfected with Lipofectamine™ 3000 (Invitrogen) in Opti-MEM™ medium. Media was changed to serum-free media 6 hours post-transfection. Media was collected 48 hours after transfection, spun at 300×g for 5 min to remove cell debris and evaluated without further processing by nanocyte tracking analysis, nanoscale flow cytometry analysis and dot blot analysis. For western blot analysis, EVs were isolated from the unfractionated media by exoquick precipitation solution (SBI) and solubilized in sample buffer. Following media collection, cell viability was determined using an XTT assay (New England Biolabs). When resveratrol was used, it was added to the serum-free media 6 hours post-transfection at the time of the media change.
(§2) Proteins were separated by SDS-PAGE and electrotransferred from polyacrylamide gels to nitrocellulose membrane (0.2 μm pore size). Membranes were blocked in tris-buffered saline (TBS) containing 0.1% Tween 20, 1% BSA and then incubated with primary antibody overnight at 4° C. The membranes were washed and incubated with horseradish peroxidase-coupled secondary antibody for about 2 hours at room temperature. Bound antibodies on the membranes were detected by incubation with Pierce chemiluminescent reagent and exposure to Cdigit, LiCor (Mandel). The chemiluminescent signals were quantified using image studio digits software (Mandel). For dot blots, 10 μl of unfractionated media was spotted on a nitrocellulose membrane, dried and the membrane was processed as described above.
(§3) Samples were similarly prepared for nanoscale flow cytometry as for NTA. All samples were analyzed using the Apogee A50 flow cytometry platform. Light scatter was provided using the 405 nm laser (75 mW); GFP signal was generated using the 488 nm laser (50 mW, 535/35) and far red signal was generated using the 630 nm laser (75 mW, 680/35). All samples were analyzed for 60 seconds. Optimization was performed to insure single EVs were being analyzed and single events were triggered by light scatter only. The system was cleaned each day prior to sample analysis and a variety of silica and polystyrene standards (Apogee 1493 standards) processed for instrument set up and QC. The silica standards were used to assess the relative size range of EVs. Nanoscale flow cytometry measures EVs within a size range from about 100 nm to about 1,300 nm.
To test whether other J proteins may also export misfolded proteins, several J proteins with reported links to neurodegeneration were screened for EV-mediated export activity. […] Alternative splicing of the DnaJB2 gene produces two isoforms, a DnaJB2short and a 42 kDa DnaJB2long isoform that undergoes C terminal geranylgeranylation. DnaJB2long was studied further. […] Extracellular milieu includes free floating co-chaperones in addition to EVs, and chaperones that adhere to EVs were expected to co-isolate with EVs. […] In fact, DnaJB11 as well as DnaJA1 were robustly secreted by CAD neurons under all conditions evaluated (FIG. 5C).

CAD cells [2] = assay: Western blot / dot blot analysis of GFP-72Q huntingtin^exon1 in EVs collected from CAD cells; assay type: cell-based
Procedure: as §1, §2

naive CAD cells = assay: EV delivery of GFP-72Q huntingtin^exon1 cargo to naive recipient CAD cells (live cell fluorescence imaging); assay type: cell-based; settings: for GFP-72Q huntingtin^exon1 cargo / aggregates in recipient CAD cells after media application: conditioned media applied to naive cells, imaged 1-48 hours
Procedure: Images of live cells were taken with the EVOS FL Auto Imaging System. Images of donor cells were taken at the time of media collection. Images of recipient cells were taken between 1-48 hours. The intensity of the GFP-72Q huntingtin^exon1 varied among cells and a single slider was used until the on-screen brightness of the lowest intensity aggregate was satisfactory and used this setting to capture images in high-quality mode. Where indicated, after the 300×g for 5 minutes conditioned media spin to remove cell debris, 60 μl of Exo-Red (SBI) was incubated with 1 ml media containing EVs for 10 minutes at 37° C. to label the RNA EV cargo. 150 μl of exo-quick was added, the labelled EVs were placed on ice for 30 min and then centrifuged for 3 minutes at 20,000×g. The labelled EV pellet was resuspended in 1 ml of DMEM-F12 media and applied to target cells.

CAD cells [3] = assay: Nanoscale flow cytometry of EVs secreted from CAD cells expressing GFP-72Q huntingtin^exon1; assay type: cell-based
Procedure: as §1
For NTA and nanoscale flow cytometry analysis, all samples were diluted 25 fold using 0.2× phosphate buffered saline that had been filtered twice through 0.2 μm filter. For NTA analysis, all samples were analyzed using the Nanosight LM10 (405 nm laser, 60 mW, software version 3.00064). Samples were analyzed in triplicate for 60 seconds per replicate with a count range of 20-100 particles per frame. A variety of NIST (Thermo Scientific 3000 Series) standards were analyzed, each the day prior to sample analysis. The system was cleaned between each sample and checked for any sample carryover using the PBS diluent. NTA measures EVs within a size range from about 30 nm to about 1,000 nm.
as §3, with “nm. […]” for “nm.”

[4] = previously shown; cited from earlier work
[5] = presence of CSPα and 50 μM resveratrol

**Q.** With DnaJA1: related J protein as the molecule, how does the “EV-mediated export of misfolded huntingtin” value (CAD cells [1]) read?
**A.** The value was “did not export misfolded huntingtin”.

**Q.** For α-synuclein, which “mutant huntingtin export with increasing protein expression” value (CAD cells [2]; western blot of EVs) is on record?
**A.** The value was “did not result in mutant huntingtin export”.

**Q.** And the “GFP-72Q huntingtin^exon1 cargo / aggregates in recipient CAD cells after media application” value (naive CAD cells)?
**A.** Its value is “low levels of GFP signal at 24 hours”.

**Q.** With DnaJC13: related J protein as the molecule, how does the “EV-mediated export of misfolded huntingtin” value (CAD cells [1]) read?
**A.** Its value is “did not export misfolded huntingtin”.

**Q.** What does the source list for `Oc1ccc(C=Cc2cc(O)cc(O)c2)cc1` [resveratrol, Resveratrol]?
**A.** GFP-72Q huntingtin^exon1-containing EVs (CAD cells [3]; 50 μM resveratrol 6 hours following transfection): decreasing; total EVs exported by CAD cells (CAD cells [3]; 50 μM resveratrol 6 hours following transfection, all conditions (vector, CSPα, CSPαL115R, CSPαΔ116)): increased total EVs exported by CAD cells in all conditions; mean size of vesicles (CAD cells [3]; 50 μM resveratrol, all conditions): increased the mean size of vesicles; total EV secretion (CAD cells [3]; 50 μM resveratrol, control, vector and CSPα-expressing cells): increases total EV secretion; CSPα-EV export of EVs containing GFP-72Q huntingtin^exon1 (CAD cells [3]; 50 μM resveratrol, p<0.0001): significantly reduced; EVs containing GFP cargo within the 180-240 nm subpopulation (CAD cells [3]; [5]): 0.53%; EVs containing GFP cargo within the <180 nm subpopulation (CAD cells [3]; [5]): 0.03%; EVs containing GFP cargo within the >240 nm subpopulation (CAD cells [3]; [5]): 0.78%; secretion of the 180-240 nm GFP-labelled EV pool (CAD cells [3]; resveratrol concentration response): significantly reduced secretion of the 180-240 nm GFP-labelled EV pool in a concentration-dependent manner; secretion of GFP-72Q huntingtin^exon1 and CSPα (western blot of EVs) (CAD cells [2]; 50 μM resveratrol): reduced secretion of GFP-72Q huntingtin^exon1 but not CSPα; secretion of GFP-72Q huntingtin^exon1 mediated by CSPα and ANCL mutants (CAD cells [2]; 50 μM resveratrol): reduced secretion of GFP-72Q huntingtin^exon1 mediated by CSPα, CSPαL115R and CSPαΔ116; GFP cargo in recipient cells (naive CAD cells; media produced from neurons treated with 50 μM resveratrol): GFP cargo was still detected in recipient cells

**Q.** With DnaJC19: related J protein as the molecule, how does the “EV-mediated export of misfolded huntingtin” value (CAD cells [1]) read?
**A.** Its value is “did not export misfolded huntingtin”.

**Q.** For DnaJB1: related J protein, which “EV-mediated export of misfolded huntingtin” value (CAD cells [1]) is on record?
**A.** The value was “did not export misfolded huntingtin”.

B1: DnaJB11: related J protein (protein, UniProt Q9UBS4 23-358, looked up)
DnaJ homolog subfamily B …: GRDFYKILGVPRSASIKDIKKAYRKLALQLHPDRNPDDPQAQEKFQDLGAAYEVLSDSEKRKQYDTYGEEGLKDGHQSSHGDIFSHFFGDFGFMFGGTPRQQDRNIPRGSDIIVDLEVTLEEVYAGNFVEVVRNKPVARQAPGKRKCNCRQEMRTTQLGPGRFQMTQEVVCDECPNVKLVNEERTLEVEIEPGVRDGMEYPFIGEGEPHVDGEPGDLRFRIKVVKHPIFERRGDDLYTNVTISLVESLVGFEMDITHLDGHKVHISRDKITRPGAKLWKKGEGLPNFDNNNIKGSLIITFDVDFPKEQLTEEAREGIKQLLKQGSVQKVYNGLQGY
**Q.** Which “EV-mediated export of misfolded huntingtin” value (CAD cells [1]) does the source give for B1 here?
**A.** Its value is “did not export misfolded huntingtin”.

B2: DnaJB2: DnaJ Heat Shock Protein Family (Hsp40) Member B2 (protein, UniProt P25686 2-321, looked up)
DnaJ homolog subfamily B …: ASYYEILDVPRSASADDIKKAYRRKALQWHPDKNPDNKEFAEKKFKEVAEAYEVLSDKHKREIYDRYGREGLTGTGTGPSRAEAGSGGPGFTFTFRSPEEVFREFFGSGDPFAELFDDLGPFSELQNRGSRHSGPFFTFSSSFPGHSDFSSSSFSFSPGAGAFRSVSTSTTFVQGRRITTRRIMENGQERVEVEEDGQLKSVTINGVPDDLALGLELSRREQQPSVTSRSGGTQVQQTPASCPLDSDLSEDEDLQLAMAYSLSEMEAAGKKPAGGREAQHRRQGRPKAQHQDPGLGGTQEGARGEATKRSPSPEEKASRC
**Q.** For B2, which “EV-mediated export of misfolded huntingtin” value (CAD cells [1]) is on record?
**A.** Its value is “exports misfolded huntingtin in EVs”.

B3: DnaJC14: related J protein (protein, UniProt Q6Y2X3 1-702, looked up)
DnaJ homolog subfamily C …: MAQKHPGERGLYGAHHSGGASLRTLGPSVDPEIPSFSGLRDSAGTAPNGTRCLTEHSGPKHTQHPNPAHWLDPSHGPPGGPGPPRDAEDPDQSETSSEEESGVDQELSKENETGNQKDGNSFLSIPSACNCQGTPGIPEGPYSEGGNGSSSNFCHHCTSPALGEDELEEEYDDEESLKFPSDFSRVSSGKKPPSRRQRHRFPTKEDTREGGRRDPRSPGRHRLGRKRSQADKRKGLGLWGAEELCQLGQAGFWWLIELLVLVGEYVETCGHLIYACRQLKSSDLDLFRVWMGVWTGRLGGWAQVMFQFLSQGFYCGVGLFTRFLKLLGALLLLALALFLGFLQLGWRFLVGLGDRLGWRDKATWLFSWLDSPALQRCLTLLRDSRPWQRLVRIVQWGWLELPWVKQNINRQGNAPVASGRYCQPEEEVARLLTMAGVPEDELNPFHVLGVEATASDVELKKAYRQLAVMVHPDKNHHPRAEEAFKVLRAAWDIVSNAEKRKEYEMKRMAENELSRSVNEFLSKLQDDLKEAMNTMMCSRCQGKHRRFEMDREPKSARYCAECNRLHPAEEGDFWAESSMLGLKITYFALMDGKVYDITEWAGCQRVGISPDTHRVPYHISFGSRIPGTRGRQRATPDAPPADLQDFLSRIFQVPPGQMPNGNFFAAPQPAPGAAAASKPNSTVPKGEAKPKRRKKVRRPFQR
**Q.** With B3 as the molecule, how does the “EV-mediated export of misfolded huntingtin” value (CAD cells [1]) read?
**A.** Its value is “did not export misfolded huntingtin”.

B4: CSPαΔ116: CSPα with the human L116Δ mutation that causes ANCL (protein, UniProt Q9H3Z4 1-198, looked up, variant L116*)
DnaJ homolog subfamily C …: MADQRQRSLSTSGESLYHVLGLDKNATSDDIKKSYRKLALKYHPDKNPDNPEAADKFKEINNAHAILTDATKRNIYDKYGSLGLYVAEQFGEENVNTYFVLSSWWAKALFVFCGLTCCYCCCCLCCCFNCCCGKCKPKAPEGEETEFYVSPEDLEAQLQSDEREATDTPIVIQPASATETTQLTADSHPSYHTDGFN
**Q.** Which “export of GFP-72Q huntingtin^exon1” value [4] does the source give for B4 here?
**A.** The value was “promote export”.

B5: CSPαL115R: CSPα with the human L115R mutation that causes ANCL (protein, UniProt Q9H3Z4 1-198, looked up, variant L115R)
DnaJ homolog subfamily C …: MADQRQRSLSTSGESLYHVLGLDKNATSDDIKKSYRKLALKYHPDKNPDNPEAADKFKEINNAHAILTDATKRNIYDKYGSLGLYVAEQFGEENVNTYFVLSSWWAKALFVFCGRLTCCYCCCCLCCCFNCCCGKCKPKAPEGEETEFYVSPEDLEAQLQSDEREATDTPIVIQPASATETTQLTADSHPSYHTDGFN
**Q.** For B5, which “export of GFP-72Q huntingtin^exon1” value [4] is on record?
**A.** Its value is “promote export”.

B6: CSPαHPD-AAA: loss-of-function CSPα mutant that does not interact with Hsp70 ATPases (protein, UniProt Q9H3Z4 1-198, looked up, variant H43A P44A D45A)
DnaJ homolog subfamily C …: B5 DnaJ homolog subfamily C … with H43A, P44A, D45A, R115L
**Q.** For B6, which “export of GFP-72Q huntingtin^exon1” value [4] is on record?
**A.** Its value is “does not”.

**Q.** And the “GFP-72Q huntingtin^exon1 cargo / aggregates in recipient CAD cells after media application” value (naive CAD cells)?
**A.** The value was “low levels of GFP signal at 24 hours”.
